Experimental data: article PMC5399447, “Neuroprotective pentapeptide CN-105 is associated with reduced sterile inflammation and improved functional outcomes in a traumatic brain injury murine model” (Scientific Reports, 2017)

Columns and labels:
TBI mice = assay: Tolerability after injury; type: in vivo, mouse; settings: treatment after injury
Description: CN-105(Ac-VSRRR-amide) was synthesized by Polypeptide Inc.(San Diego, CA) to a purity of >99%, and was delivered in sterile normal saline. Animals were placed in a restrainer(Harvard Apparatus, Holliston, MA), and a single intravenous dose of drug(0.05 mg/kg) was administered by tail vein in a volume of 100 μL. Vehicle treated animals received intravenous injection of 100 μL of normal saline at the same time points. Animals were assigned to treatment group by a coded study identification number after injury using a paper randomization protocol. A block randomization scheme was used, so that an equal number of animals were randomized to each of the treatment groups during concurrent experiments.

[1] = tested on: murine model of intracranial hemorrhage; settings: cited from earlier work
Excerpt: The possibility that the apoE mimetic peptide modifies sterile inflammation in the central nervous system is particularly relevant after traumatic brain injury, where glial activation and neuroinflammatory responses exacerbate secondary tissue injury. […] For example, there are a number of limitations inherent to all rodent models of traumatic brain injury. This includes the lissencephalic nature of rodent brains, which precludes testing of higher and more subtle cortical functions that are directly applicable to the clinical setting. Moreoever, rodent brains have reduced ratio of white: grey matter as compared to primates, and thus are not ideal to model the diffuse axonal injury that may occur in the clinical s ...

## Ac-VSRRR-amide [CN-105]
TBI mice
  tolerability: well tolerated
[1]; model of intracranial hemorrhage
  functional outcome: improves functional outcome
[1]; murine model of intracranial hemorrhage
  cerebral edema: reduces cerebral edema
